Values joined by “and” are separate entries in the source; they are usually repeats but may differ in a detail not shown here. Identical values can stand only once. Ends that are not written are not given here.
Key:
strain H10407 of ETEC = test system: strain H10407 of ETEC; parameters: species or system enterotoxigenic Escherichia coli; settings: in vivo
IFN-gamma = test system: IFN-gamma; parameters: species or system BALB/c mice; settings: mouse, in vivo
T CD8+ lymphocytes = test system: T CD8+ lymphocytes; parameters: species or system BALB/c mice; settings: mouse, in vivo
T CD4+ lymphocytes = test system: T CD4+ lymphocytes; parameters: species or system BALB/c mice; settings: mouse, in vivo
[1] = test system: children's sera after natural infection; format: binding
IL-4 = test system: IL-4; parameters: species or system BALB/c mice; settings: mouse, in vivo
Dynamic light scattering = format: physicochemical; settings: 1 mg/ml in 10 mm PBS pH 7.4; physiological conditions of pH and temperature
Experimental: Dynamic light scattering: One milliliter of 1 mg/ml CLE diluted in 10 mm PBS, pH 7.4 was used to evaluate the dynamic light scattering at different temperatures of 5, 15, 25, 35 and 37° C. Hydrodynamic diameter of CLE was determined using the Zed ziser nano series (Mc Malvern, USA).

IL-10 = test system: IL-10; parameters: species or system BALB/c mice; settings: mouse, in vivo

Row | Substance | positive coprocultures (excretion of ETEC) (strain H10407 of ETEC) | presence of diarrhea after the infection with ETEC (strain H10407 of ETEC) | response of INF-gamma (IFN-gamma) | response of T CD8+ lymphocytes (T CD8+ lymphocytes) | increase of T CD4+ lymphocytes relative to the control (T CD4+ lymphocytes) [times] | children's sera that recognized the epitope [1] [%] | increase of IL-4 production compared to the control group (IL-4) | oligomeric structures formed (hydrodynamic diameter) (Dynamic light scattering) | increase of T CD4+ lymphocytes with regard to control group (T CD4+ lymphocytes) | response of T CD4+ lymphocytes (T CD4+ lymphocytes) | increase of IL-10 compared to the control group (IL-10) [times]
1 | CTB | 100% and 50% | inconsistency of feces up to the third day | considerable response | very similar to the control group | 0.4 |  |  |  |  |  | 
2 | CLE: 20 amino acid common linear epitope of ETEC CFA/I fimbria, amino acids 33 to 52, with terminal cysteine in position 53 (YSPASKTFESYRVMTQVHTC; not fully specified; also: disulfide at Cys20, partner not given here; listed as Escherichia coli) | 100% and 50% | change of consistency of the feces |  | slightly higher |  | 100 | about 2.6 times | trimeric structures | about 2 fold | slightly higher | 0.8
